Reference: patent publication US9346810B2, “Pyrrolopyrimidine compounds and uses thereof” (HUTCHISON MEDIPHARMA LIMITED, priority 2010, dated 2016)
Like-named read-outs stand apart in the source and are kept apart here.

Assays:
Type in all cases: biochemical
[1] = biological target: Recombinant human JAK2 catalytic domain (Homo sapiens (Human), UniProt O60674); assay: JAK2 kinase assay (Z'-LYTE, Tyr 6 Peptide)
Procedure: (§1) JAK1/2/3 kinase assay are performed in vitro using Kit-Tyr 6 Peptide (Invitrogen, Cat. No. PV4122). TYK2 kinase assay are performed in vitro using Z′-LYTE™ Kinase Assay Kit-Tyr 3 Peptide (Invitrogen, Cat. No. PV3192). […] All compounds are initially tested at 8 different concentrations (1 μM down to 0.0003 μM) using a 1:3 serial dilution scheme.

[2] = biological target: Recombinant human JAK1 catalytic domain (Homo sapiens (Human), UniProt P23458); assay: JAK1 kinase assay (Z'-LYTE, Tyr 6 Peptide); settings: read-out: IC50 in JAK1 kinase assay
Procedure: as §1

[3] = biological target: Recombinant human JAK3 catalytic domain (Homo sapiens (Human), UniProt P52333); assay: JAK3 kinase assay (Z'-LYTE, Tyr 6 Peptide)
Procedure: as §1

[4] = read-out: IC50 in JAK2 kinase assay
[5] = read-out: IC50 in JAK3 kinase assay

Recombinant human JAK3 catalytic domain, sequence (P52333 822-1111): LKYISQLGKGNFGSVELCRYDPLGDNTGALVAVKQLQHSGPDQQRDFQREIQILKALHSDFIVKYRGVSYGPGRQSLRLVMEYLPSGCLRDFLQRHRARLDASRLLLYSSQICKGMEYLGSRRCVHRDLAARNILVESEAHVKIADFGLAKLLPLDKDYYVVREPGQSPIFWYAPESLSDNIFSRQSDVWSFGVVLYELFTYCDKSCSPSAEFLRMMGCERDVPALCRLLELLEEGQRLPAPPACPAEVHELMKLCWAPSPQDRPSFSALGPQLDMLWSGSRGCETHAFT
Recombinant human JAK2 catalytic domain, sequence (O60674 849-1124): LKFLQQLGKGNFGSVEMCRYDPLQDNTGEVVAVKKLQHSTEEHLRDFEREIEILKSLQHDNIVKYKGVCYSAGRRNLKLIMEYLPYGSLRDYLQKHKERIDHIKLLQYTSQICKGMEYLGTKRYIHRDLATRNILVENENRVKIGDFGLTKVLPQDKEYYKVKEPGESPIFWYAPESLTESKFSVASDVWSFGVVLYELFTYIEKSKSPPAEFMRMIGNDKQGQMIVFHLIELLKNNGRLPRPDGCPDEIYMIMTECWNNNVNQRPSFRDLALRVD
Recombinant human JAK1 catalytic domain, sequence (P23458 875-1153): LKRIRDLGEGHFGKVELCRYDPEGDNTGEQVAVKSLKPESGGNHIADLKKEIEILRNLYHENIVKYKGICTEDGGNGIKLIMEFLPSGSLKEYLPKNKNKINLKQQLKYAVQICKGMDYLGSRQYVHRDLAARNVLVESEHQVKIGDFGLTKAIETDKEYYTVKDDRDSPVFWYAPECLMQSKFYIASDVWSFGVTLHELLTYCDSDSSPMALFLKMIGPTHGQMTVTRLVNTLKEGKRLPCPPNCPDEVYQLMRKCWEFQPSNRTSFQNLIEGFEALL

Structure (SMILES)	IC50 [1, 4] [µM]	IC50 [2] [µM]	IC50 [3, 5] [µM]	also measured
CN(c1ccc(Br)cn1)[C@@H]1CCN(c2ncnc3[nH]ccc23)C1 [Compound 68]	0.1 to 1	0.001 to 0.1	–	–
Cc1nc(N(C)[C@@H]2CCN(c3ncnc4[nH]ccc34)C2)ccc1C#N [Compound 155]	0.001 to 0.1	0.001 to 0.1	–	–
CN(c1ccc(S(=O)(=O)C(F)(F)F)cc1)[C@@H]1CCN(c2ncnc3[nH]ccc23)C1 [Compound 122]	0.001 to 0.1	0.001 to 0.1	–	–
CN(c1cccc(C#N)c1)[C@@H]1CCN(c2ncnc3[nH]ccc23)C1 [Compound 119, (R)-3-((1-(7H-pyrrolo[2,3-d]pyrimidin-4-yl)pyrrolidin-3-yl)(methyl)amino)benzonitrile]	–	0.001 to 0.1	–	–
CN(c1ccc(S(=O)(=O)NC[C@H]2CCCO2)cn1)[C@@H]1CCN(c2ncnc3[nH]ccc23)C1 [Compound 241]	0.001 to 0.1	0.001 to 0.1	–	–
CN(C(=O)N1CCCC1)[C@@H]1CCN(c2ncnc3[nH]ccc23)C1 [Compound 37]	–	0.001 to 0.1	–	–
CN(C(=O)Nc1cccc(C#N)c1)[C@@H]1CCN(c2ncnc3[nH]ccc23)C1 [Compound 16, (R)-1-(1-(7H-pyrrolo[2,3-d]pyrimidin-4-yl)pyrrolidin-3-yl)-3-(3-cyanophenyl)-1-methylurea]	0.1 to 1	0.001 to 0.1	–	–
C#CCN(c1cnc(C#N)cn1)[C@@H]1CCN(c2ncnc3[nH]ccc23)C1 [Compound 127]	–	0.001 to 0.1	–	–
CN(C(=O)NC1CCOCC1)[C@@H]1CCN(c2ncnc3[nH]ccc23)C1 [Compound 36]	–	0.001 to 0.1	–	–
N#Cc1ccc(N(C2CC2)[C@@H]2CCN(c3ncnc4[nH]ccc34)C2)nc1 [Compound 41]	0.001 to 0.1	–	0.1 to 1	–
CCS(=O)(=O)N(C)[C@@H]1CCN(c2ncnc3[nH]ccc23)C1 [Compound 48]	0.001 to 0.1	–	0.1 to 1	–
CCCN(c1ccc(C#N)cn1)[C@@H]1CCN(c2ncnc3[nH]ccc23)C1 [Compound 98]	0.001 to 0.1	–	0.1 to 1	–
CN(C(=O)CCc1c(Cl)cccc1Cl)[C@@H]1CCN(c2ncnc3[nH]ccc23)C1 [Compound 21]	–	0.001 to 0.1	–	–
CN(c1ccc(C(=O)N[C@H](CO)c2ccccc2)cn1)[C@@H]1CCN(c2ncnc3[nH]ccc23)C1 [Compound 174]	0.001 to 0.1	–	0.1 to 1	–
N#Cc1ccc(N[C@@H]2CCN(c3ncnc4[nH]ccc34)C2)nc1 [Compound 81]	0.001 to 0.1	–	0.1 to 1	–
CN(c1ccc(C#N)nn1)[C@@H]1CCN(c2ncnc3[nH]ccc23)C1 [Compound 60]	0.001 to 0.1	–	0.1 to 1	–
CN(c1ncc(Br)cn1)[C@@H]1CCN(c2ncnc3[nH]ccc23)C1 [Compound 94]	0.001 to 0.1	–	0.1 to 1	–
CN(c1ccc(C(=O)NC2CC2)cn1)[C@@H]1CCN(c2ncnc3[nH]ccc23)C1 [Compound 171, (R)-6-((1-(7H-pyrrolo[2,3-d]pyrimidin-4-yl)pyrrolidin-3-yl)(methyl)amino)-N-cyclopropylnicotinamide]	0.001 to 0.1	–	0.1 to 1	–
CN(CCC#N)[C@@H]1CCN(c2ncnc3[nH]ccc23)C1 [Compound 64]	0.001 to 0.1	–	0.1 to 1	–
C#CCN(c1ccc(C#N)cc1)[C@@H]1CCN(c2ncnc3[nH]ccc23)C1 [Compound 131]	0.001 to 0.1	–	0.1 to 1	–
CN(c1cc(F)c(C#N)c(F)c1)[C@@H]1CCN(c2ncnc3[nH]ccc23)C1 [Compound 106]	–	0.001 to 0.1	–	–
CN(c1ccc(C#N)cc1[N+](=O)[O-])[C@@H]1CCN(c2ncnc3[nH]ccc23)C1 [Compound 107]	0.1 to 1	–	0.1 to 1	–
CNS(=O)(=O)N(C)[C@@H]1CCN(c2ncnc3[nH]ccc23)C1 [Compound 47]	0.001 to 0.1	–	–	IC50 ([3]; read-out: JAK3 (enzyme, IC50)): 0.157 µM; IC50 ([1]; read-out: JAK2 (enzyme, IC50)): 0.098 µM
CN(c1nc(Cl)nc2ccccc12)[C@@H]1CCN(c2ncnc3[nH]ccc23)C1 [Compound 79]	0.1 to 1	–	0.1 to 1	–
C#CCN(c1c(F)cc(C#N)cc1F)[C@@H]1CCN(c2ncnc3[nH]ccc23)C1 [Compound 129]	0.001 to 0.1	–	0.001 to 0.1	–
CN(C(=O)Nc1ccc(Cl)cc1)[C@@H]1CCN(c2ncnc3[nH]ccc23)C1 [Compound 33]	–	0.001 to 0.1	–	–
CN(c1ccc(-c2ccncc2)cn1)[C@@H]1CCN(c2ncnc3[nH]ccc23)C1 [Compound 144, (R)—N-(1-(7H-pyrrolo[2,3-d]pyrimidin-4-yl)pyrrolidin-3-yl)-N-methyl-3,4′-bipyridin-6-amine]	–	0.001 to 0.1	–	–
CN(C(=O)Nc1ccc(C#N)cc1)[C@@H]1CCN(c2ncnc3[nH]ccc23)C1 [Compound 17]	0.1 to 1	–	0.1 to 1	–

Now from value to molecule, other results behind:

IC50 [1, 4] [µM]	IC50 [2] [µM]	IC50 [3, 5] [µM]	Structure (SMILES)	also measured
–	0.001 to 0.1	–	CN(c1ccc(NS(=O)(=O)c2cccs2)cn1)[C@@H]1CCN(c2ncnc3[nH]ccc23)C1 [Compound 214]	–
–	0.001 to 0.1	–	CN(c1ccc(S(=O)(=O)Nc2ccc(F)cc2)cn1)[C@@H]1CCN(c2ncnc3[nH]ccc23)C1 [Compound 253]	–
–	0.001 to 0.1	–	CN(c1ccc(S(=O)(=O)N2CCNCC2)cn1)[C@@H]1CCN(c2ncnc3[nH]ccc23)C1 [Compound 251]	–
–	0.001 to 0.1	–	CN(c1ccc(S(=O)(=O)N[C@@H]2c3ccccc3C[C@H]2O)cn1)[C@@H]1CCN(c2ncnc3[nH]ccc23)C1 [Compound 233]	–
0.001 to 0.1	0.001 to 0.1	–	CN(c1ccc(S(=O)(=O)NC2COC2)cn1)[C@@H]1CCN(c2ncnc3[nH]ccc23)C1 [Compound 242]	–
0.1 to 1	0.001 to 0.1	–	CN(c1ccc(S(=O)(=O)N2CCOCC2)cn1)[C@@H]1CCN(c2ncnc3[nH]ccc23)C1 [Compound 252]	–
0.1 to 1	0.001 to 0.1	–	CN(c1ccc(NS(C)(=O)=O)cn1)[C@@H]1CCN(c2ncnc3[nH]ccc23)C1 [Compound 217]	–
0.1 to 1	0.001 to 0.1	–	CN(c1ccc(S(=O)(=O)NCCO)cn1)[C@@H]1CCN(c2ncnc3[nH]ccc23)C1 [Compound 243]	–
0.1 to 1	0.001 to 0.1	–	CC(C)S(=O)(=O)Nc1ccc(N(C)[C@@H]2CCN(c3ncnc4[nH]ccc34)C2)nc1 [Compound 218]	–
–	0.001 to 0.1	–	CN(c1ccc(NS(=O)(=O)Cc2ccccc2F)cn1)[C@@H]1CCN(c2ncnc3[nH]ccc23)C1 [Compound 219]	–
–	0.001 to 0.1	–	CN(c1ccc(S(=O)(=O)NC(C)(C)C)cn1)[C@@H]1CCN(c2ncnc3[nH]ccc23)C1 [Compound 238]	–
–	0.001 to 0.1	–	COCCNS(=O)(=O)c1ccc(N(C)[C@@H]2CCN(c3ncnc4[nH]ccc34)C2)nc1 [Compound 237]	–
–	0.001 to 0.1	–	CN(c1ccc(S(=O)(=O)NCc2ccc(F)cc2)cn1)[C@@H]1CCN(c2ncnc3[nH]ccc23)C1 [Compound 254]	–
–	0.001 to 0.1	–	CN(c1ccc(NS(=O)(=O)c2cccnc2)cn1)[C@@H]1CCN(c2ncnc3[nH]ccc23)C1 [Compound 215]	–
–	0.001 to 0.1	–	CN(c1ccc(S(=O)(=O)N2CCCC2)cn1)[C@@H]1CCN(c2ncnc3[nH]ccc23)C1 [Compound 247]	–
0.001 to 0.1	–	0.001 to 0.1	C[C@H](NC(=O)c1ccc(N(C)[C@@H]2CCN(c3ncnc4[nH]ccc34)C2)c(F)c1)c1ccccc1 [Compound 182]	–
–	0.001 to 0.1	–	C[C@H](O)CNS(=O)(=O)c1ccc(N(C)[C@@H]2CCN(c3ncnc4[nH]ccc34)C2)nc1 [Compound 245]	–
0.001 to 0.1	–	0.1 to 1	CN(c1ccc(C(=O)NCCO)cn1)[C@@H]1CCN(c2ncnc3[nH]ccc23)C1 [Compound 190]	–
–	0.001 to 0.1	–	CN(c1ccc(S(=O)(=O)NC2CCC[C@@H]2O)cn1)[C@@H]1CCN(c2ncnc3[nH]ccc23)C1 (stereo partly drawn) [Compound 246]	–
